According to publication PMC2628307 (Journal of the American Chemical Society, 2008):
Values joined by “and” are separate entries in the source; they are usually repeats but may differ in a detail not shown here. Identical values can stand only once. Counter-ions that a name gives are not always drawn. Like-named read-outs stand apart in the source and are kept apart here.

Columns and labels:
PP1γ [1] = molecular target: T1, PP1γ (Homo sapiens, UniProt P36873); type: biochemical; conditions: for activity as PP1γ substrate: pH 8
PP1 [2] = molecular target: PP1 (Homo sapiens, UniProt P36873); experiment: Kinetic isotope effects of PP1-catalyzed hydrolysis; type: biochemical; conditions: 25 °C, pH 7.0
PP1 H125A mutant = PP1 H125A mutant (Homo sapiens, UniProt P36873, H125A); experiment: 4NPP hydrolysis by PP1 H125A mutant; type: biochemical
[3] = tested on: native PTPs YopH, VHR, and PTP1; conditions: cited from earlier work
[4] = Dianion H2O attack, 95° C; cited from earlier work
[5] = 25 °C; cited from earlier work
calcineurin = conditions: cited from earlier work
alkaline phosphatase = conditions: cited from earlier work
PP1 [6] = conditions: tighter binding peptide substrate; cited from earlier work
PP1γ [7] = molecular target: T1, PP1γ

T1 sequence (P36873 whole entry): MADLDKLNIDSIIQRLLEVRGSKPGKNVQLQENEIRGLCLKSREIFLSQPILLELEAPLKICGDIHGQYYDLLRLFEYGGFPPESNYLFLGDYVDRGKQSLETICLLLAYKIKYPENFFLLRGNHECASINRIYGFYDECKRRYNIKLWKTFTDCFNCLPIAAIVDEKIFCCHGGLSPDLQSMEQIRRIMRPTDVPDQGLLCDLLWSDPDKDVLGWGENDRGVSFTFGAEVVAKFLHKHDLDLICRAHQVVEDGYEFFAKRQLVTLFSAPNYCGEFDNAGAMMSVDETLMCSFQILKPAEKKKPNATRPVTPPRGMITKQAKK
PP1 (Homo sapiens, UniProt P36873), sequence (P36873 whole entry): as above
PP1 H125A mutant, sequence (P36873 2-323 H125A): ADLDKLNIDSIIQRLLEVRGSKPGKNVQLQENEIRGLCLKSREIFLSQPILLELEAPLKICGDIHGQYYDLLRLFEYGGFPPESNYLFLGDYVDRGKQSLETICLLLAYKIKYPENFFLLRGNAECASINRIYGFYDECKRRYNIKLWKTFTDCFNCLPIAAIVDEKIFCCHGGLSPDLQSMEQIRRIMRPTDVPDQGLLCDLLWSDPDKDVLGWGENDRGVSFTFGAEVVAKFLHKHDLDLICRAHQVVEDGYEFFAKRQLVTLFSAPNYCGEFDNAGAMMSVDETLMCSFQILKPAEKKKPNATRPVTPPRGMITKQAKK

O=[N+]([O-])c1ccc(O)cc1 [4-nitro, p-nitrophenol]
pKa (physchem): 7.01

COP(=O)(O)Oc1ccc([N+](=O)[O-])cc1 [4-nitrophenyl methyl phosphate]
activity as PP1γ substrate (PP1γ [1]): significant activity

O=[N+]([O-])c1ccc(OS(=O)(=O)O)cc1 [4-nitrophenyl sulfate]
activity as PP1γ substrate (PP1γ [1]): little activity

O=[N+]([O-])c1ccc(OP(O)(O)=S)cc1 [4-nitrophenyl thiophosphate]
activity as PP1γ substrate (PP1γ [1]): little activity

O=[N+]([O-])c1ccc(OP(=O)(O)O)cc1 [4NPP, 4-nitrophenyl phosphate]
^18knonbridge (PP1 [2]): 0.9959 (4)
^18knonbridge per atom (PP1 [2]): 0.9986 (4)
activity for 4NPP hydrolysis (PP1 H125A mutant): no detectable activity
^15k [3]: 0.9999-1.0001
^18knonbridge [3]: 0.9998-1.0003 and 1.0118-1.0152
^18knonbridge per atom [3]: 0.9999-01.0001
^15k [4]: 1.0028(2)
^18knonbridge [4]: 0.9994 (5)
^18knonbridge per atom [4]: 0.9998 (5)
pseudo-first order rate constant of water reaction of the dianion [5]: 2e-09 s⁻¹
change in rate of hydrolysis with viscosigens (PP1γ [1]; 20% sucrose or glycerol): no changes
^18(V/K)nonbridge (calcineurin; calcineurin with Mg^2+ at the active site): 0.9910
^18(V/K)nonbridge (calcineurin; calcineurin with Mn^+2 at the active site): 0.9942

O=P(O)(O)O [inorganic phosphate]
Ki (alkaline phosphatase): ~1 µM
Ki (PP1 [6]): 1600 ± 900 µM
Ki (PP1γ [7]; pH 8, 4NPMP hydrolysis, compared with Ki for the 4NPP reaction): same Ki
Ki (PP1γ [7]; pH 8.0, 4NPP hydrolysis, competitive inhibition, equation 2): 1200 ± 200 µM
